Read-outs that look alike come from different tables or passages of the source.
Columns and labels:
T-cell proliferation = T-cell proliferation ([3H]thymidine uptake, C57BL/6 responders with mitomycin C treated BALB/C feeder cells); type: cell-based; details: murine T-cells, read-out: Concentration that provides 50% inhibition of T-cell proliferation, IC50
Method: T-cell assay is commonly employed as a primary platform for testing of activities that modulate immune and inflammatory activities in many diseases. Assays of antigen non-specific T-cell proliferation and antigen-specific proliferation are often used in the tests.
(§1) To determine the effect of the inventive compounds on non-specific and specific antigen induced T-cell proliferation, compounds were tested at a range of concentrations as outlined by the following protocol: Murine lymph nodes were removed aseptically and cell suspensions were prepared in RPMI-1640. Single lymphocytes were isolated over Lymphocyte-M by centrifugation at 22° C. and 1800 g for 15 min, and then washed three times (500 g for 5 min at 22° C.). Adherent cells were depleted by cytoadherence to fibronectin-coated plastic culture dish (twice at 37° C. for 45 min). T-cells isolated by incubating cell suspensions in a nylon wool column for 2 h at 37° C. and use for subsequent experiments were greater than 95% viable, as determined by trypan blue exclusion. Feeder cells were prepared by treating BALB/C spleen cells with mitomycin C (50 μg/ml, for 20 min at 37° C.) followed by five times washing using a large volume of Hank's solution. C57BL/6 Responders (2×10^5) was incubated in duplicate with the mitomycin C treated BALB/C feeder cells (2×10^5) in 96-well, round-bottomed, microtitre plates (Costar Laboratories, Worcester, Mass.) with complete medium (RPMI 1640 with 25 mM Hepes and L-glutamine supplemented with […] 2-mercapto-ethanol, 10% fetal cow serum (FCS), 10,000 unit of penicillin, and 10 mg of streptomycin per 100 ml of medium) at 37° C., 5% CO2. After 96 h, the culture wells received [^3H]thymidine ([^3H]TdR; 1 μCi/well) and proliferation was assessed at 16 h by harvesting cells onto glass fiber filter paper and counting in a β-counter.

TNF-α production = TNF-α production by macrophage cells (ELISA); type: cell-based; details: murine macrophage cells, 24 h; for activity at 10 µM: Mus musculus, read-out: Effect on TNF-α production, % of control; for Effect on TNF-α production, % of control: 10 μM
Text: (§2) Macrophages are very important components of the host defense system, but they are also involved in the development of tissue injury during inflammation in some human disease. Efficient antagonists can block subsequent symptoms (skin redness, edema, pain and dysfunction) of inflammation. CD86 expression, nitric oxide and TNF-α production are experimental indicators of macrophage function in vivo. CD86 expression by antigen presenting cells, including dendritic cells, macrophages and activated B cells, is necessary for interaction with T-cell CD28, which is necessary for T-cells to be fully activated. Nitric oxide is a potent microbiological macrophage product. TNF-α is a pro-inflammatory cytokine important in recruitment and stimulation of inflammatory cells. The effect of inventive compounds on the TNF-α production by macrophage cells was tested using the following protocol: Murine macrophage cells were lifted from adherent culture and resuspended in 10% FCS in DMEM. Cells (5×10^4/well) were aliquoted into flat bottom, tissue culture-treated microtitre plates and lipolysaccharide, N-acetylcysteine, test compound or vehicle controls were added. The cells were incubated at 37° C., 5% CO2 for 24 h and the culture supernatant removed for TNF-α ELISA, and CD86 expression was determined by FACS analysis on flow cytometer.

IFN-γ = IFN-γ production from Con A activated T-cells (ELISA); type: cell-based, murine; details: read-out: Concentration for 50% of inhibition of IFN-γ, IC50
Method: as §1
(§3) To determine the effect of inventive compounds on IL-2, IL-4 and IFN-γ production from activated T-cells, the following assays were performed using the protocol outlined above for T-cells. The T-cell was activated by concanavalin A (Con A) and incubated, cytokines in the supernatants were assayed by commercial immune-linked immunosorbent assay (ELISA) kits.

[1] = tested on: CD86 expression in murine macrophages; test: CD86 expression in murine macrophages (FACS); type: cell-based; details: 10 μM, 24 h
Text: as §2

[2] = tested on: histamine release by mast cells; test: Histamine release by mast cells derived from mouse bone marrow (hexosamindase activity); type: cell-based; details: Mast cell, read-out: Effect on histamine release by mast cells, IC50
Method: Histamine is an important mediator and is involved in a wide range of biological activities, including inflammation and allergy. The activity of representative compounds, against histamine release was tested using a standard mast cell assay (Arquardt, C. et al. 1986. Am Rev Respir Dis 133:1105-1109). The mast cells were derived from mouse bone marrow. The histamine release was measured by the hexosamindase activity.

IL-2 production = IL-2 production from Con A activated T-cells (ELISA); type: cell-based, murine; details: read-out: Inhibitory activity against IL-2 production, IC50
Method: as §1, §3

[3] = tested on: induced edema in Balb/c mouse; test: TPA induced mouse ear edema model; type: in vivo; details: single topical administration
Method: Briefly, Balb/c mouse ear edema was induced by phorbol-12-myristate-13-acetate (TPA) by adding 20 ul of 0.01% (w/v) to the right ear of each mouse. Each test compound dissolved in the same vehicle (ethanol) as TPA was applied separately to the right ear of each moue. The mouse ear edema of each test compound was compared with that of the TPA and expressed as % of inhibition.

[4] = tested on: crystal induced neutrophil activation; test: Crystal (calcium pyrophosphate dihydrate) induced neutrophil activation, chemoluminescence; type: cell-based, human; details: 25 μM
Method: (§4) Neutrophils predominate over other cell types in many variants of acute and chronic inflammatory condition. Effect of the inventive compounds was tested on human neutrophil activation by chemoattractant [N-formyl-methionyl-luecyl-phenylalanine (FMPL)] and crystal (calcium pyrophosphate dihydrate) using an established protocol (Tudan, C. 1999. Biochem. Pharmacol 58:1869-1880).
(§5) Neutrophils were prepared from freshly collected human citrated whole blood. Briefly, 400 ml of blood were mixed with 80 ml of 4% dextran in Hanks buffered saline solution (HBSS) pH 7.4 and allowed to settle for 1 hour. Plasma was collected continuously and 5 ml applied to 5 ml of Ficoll Paque (Pharmacia) in 15 ml polypropylene tubes. Following centrifugation at 500 g for 30 minutes, the neutrophil pellets were washed free of erythrocytes by 20 seconds of hypotonic shock. Neutrophils were resuspended in HBSS, kept on ice and used for experiments within 3 h. Neutrophil viability and purity was always greater than 90%. Solutions of test compounds were added to neutrophils at 5,000,000 cells per ml under mild vortexing. Cells were incubated for 20 minutes at 33° C. then for 10 minutes at 37° C. before addition to crystals or chemoattractants for neutrophil activation. Chemoluminescence was monitored using an luminometer at 37° C.

[5] = tested on: FMLP induced neutrophil activation; test: FMLP induced neutrophil activation, chemoluminescence; type: cell-based; details: Homo sapiens, read-out: FMLP induced neutrophil activation, Chemoluminescence (mV), % of control
Method: as §4, §5

Row | IC50 (IFN-γ; Mus musculus, T-cell) [nM] | IC50 (IL-2 production; Mus musculus, T-cell) [nM] | Structure (SMILES) | IC50 (T-cell proliferation; Mus musculus, T-cell) [nM] | Effect on CD86 expression in murine macrophages, % of control [1] [%] | IC50 (T-cell proliferation) [nM] | other results
1 | 1620 | – | CC(=Cc1ccccc1)c1cc(O)c(C(C)C)c(O)c1 [5-(1-Methyl-2-phenylethenyl)-2-i-propyl-1,3-benzenediol] | 1490 | 0 | – | –
2 | 1710 | – | CC(C)c1c(O)cc(C=C(c2ccccc2)c2ccccc2)cc1O [5-(2,2-Diphenylethenyl)-2-i-propyl-1,3-benzenediol] | – | 10 | – | –
3 | – | 400 | CC(=Cc1cc(O)c(C(C)C)c(O)c1)c1ccccc1 [5-(2-Methyl-2-phenylethenyl)-2-i-propyl-1,3-benzenediol] | 1150 | 51 | – | Crystal induced neutrophil activation, chemoluminescence (mV) as % of the control ([4]; time 1 minute): 23%; Crystal induced neutrophil activation, chemoluminescence (mV) as % of the control ([4]; time 2 minutes): 10%; Crystal induced neutrophil activation, chemoluminescence (mV) as % of the control ([4]; time 3 minutes): 7%; Crystal induced neutrophil activation, chemoluminescence (mV) as % of the control ([4]; time 4 minutes): 6%; Crystal induced neutrophil activation, chemoluminescence (mV) as % of the control ([4]; time 5 minutes): 6%; Crystal induced neutrophil activation, chemoluminescence (mV) as % of the control ([4]; time 7 minutes): 16%; Crystal induced neutrophil activation, chemoluminescence (mV) as % of the control ([4]; time 10 minutes): 29%; activity at 25 µM [5]: 30%

Continued, compound first:

Row | Structure (SMILES) | IC50 (IFN-γ; Mus musculus, T-cell) [nM] | IC50 (IL-2 production; Mus musculus, T-cell) [nM] | IC50 (T-cell proliferation; Mus musculus, T-cell) [nM] | Effect on CD86 expression in murine macrophages, % of control [1] [%] | IC50 (T-cell proliferation) [nM] | other results
4 | CC(C)c1c(O)cc(C=Cc2cccs2)cc1O [2-i-Propyl-5-(2-thiophene-2-ylethenyl)-1,3-benzenediol] | 80 | 28 | 5160 | 2 | – | activity at 10 µM (TNF-α production): 50%; IC50 [2]: 18900 nM
5 | CC(C)c1c(O)cc(C(C#N)=Cc2ccccc2)cc1O [2-(3,5-Dihydroxy-4-i-propylphenyl)-3-phenylpropenylnitrile] | – | – | – | – | 3500 | Effect on TNF-α production, % of control (TNF-α production): 60%; IC50 (IFN-γ): 860 nM; % inhibition of edema [3]: 85.2%; IC50 (IL-2 production): 130 nM
6 | CC(C)c1c(O)cc(C=C(C#N)c2ccccc2)cc1O [3-(3,5-Dihydroxy-4-i-propylphenyl)-2-phenylpropenylnitrile] | – | – | – | 16 | 1810 | IC50 (IFN-γ): 710 nM
7 | C=C1/C(=C\C=C2/CCC[C@]3(C)[C@@H]([C@H](C)CCCC(C)(C)O)CC[C@@H]23)C[C@@H](O)C[C@@H]1O [calcitriol, reference compound] | – | – | – | – | – | % inhibition of edema ([3]; 0.01% calcitriol): 31.2%
8 | CC(=Cc1cc(O)cc(O)c1)c1ccccc1 [5-(2-Methyl-2-phenylethenyl)-1,3-benzenediol] | – | 1790 | 4650 | 90 | – | activity at 10 µM (TNF-α production): 42%
9 | CC(C)c1c(O)cc(C=Cc2ccccn2)cc1O.Cl [2-[2-(3.5-Dihydroxy-4-i-propylphenyl)ethenyl]pyridine hydrochloride] | – | – | – | 88 | 2090 | Effect on TNF-α production, % of control (TNF-α production): 75%

Source: US8487009B2, “1,2-diphenylethene derivatives for treatment of immune diseases” (Glaxo Group Limited, priority 2001, dated 2013)
